Assay results published in ChEMBL document CHEMBL1201862, “PubChem BioAssay data set” (2004).
Calls of active or inactive are those of the source.

Key:
[1] = target: Eukaryotic translation initiation factor 4E (Mus musculus, UniProt P63073); assay: eIF4E–eIF4G protein interaction inhibitors, dose response, biochemical, TR-FRET (AID 855); type: functional;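 note: potency for disrupting eIF4E binding to eIF4GI seen as loss of FRET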
[2] = LGR2 antagonists, dose response, cell-based, HEK293, CRE-luciferase reporter, cherry pick, set 2 (AID 743343); type: functional;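 note: transfected cells were stimulated with diluted bursicon conditioned medium after compound addition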
[3] = MC4R antagonists, dose response, counter-screen for LGR2 antagonist project, cell-based, plate reader, cherry pick (AID 743444); type: functional;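 note: transfected HEK 293 cells stimulated with alpha-MSH peptide; potency of inhibitors of the alpha-MSH evoked signal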
[4] = A549 cell cytotoxicity, dose response, cytotoxicity control, plate reader, cherry-pick, antagonist series (AID 743412); type: functional, cell-based
[5] = target: T1, Long-chain-fatty-acid--AMP ligase FadD28 (Mycobacterium tuberculosis, UniProt P9WQ59); assay: Fluorescence polarization aasay to screen for inhibitors that compete for the binding of FadD28 to a bisubstrate Measured in Biochemical System Using Plate Reader - 2147-01_Inhibitor_Dose_CherryPick_Activity.; type: functional, Mycobacterium tuberculosis H37Rv
T1 sequence (P9WQ59 whole entry): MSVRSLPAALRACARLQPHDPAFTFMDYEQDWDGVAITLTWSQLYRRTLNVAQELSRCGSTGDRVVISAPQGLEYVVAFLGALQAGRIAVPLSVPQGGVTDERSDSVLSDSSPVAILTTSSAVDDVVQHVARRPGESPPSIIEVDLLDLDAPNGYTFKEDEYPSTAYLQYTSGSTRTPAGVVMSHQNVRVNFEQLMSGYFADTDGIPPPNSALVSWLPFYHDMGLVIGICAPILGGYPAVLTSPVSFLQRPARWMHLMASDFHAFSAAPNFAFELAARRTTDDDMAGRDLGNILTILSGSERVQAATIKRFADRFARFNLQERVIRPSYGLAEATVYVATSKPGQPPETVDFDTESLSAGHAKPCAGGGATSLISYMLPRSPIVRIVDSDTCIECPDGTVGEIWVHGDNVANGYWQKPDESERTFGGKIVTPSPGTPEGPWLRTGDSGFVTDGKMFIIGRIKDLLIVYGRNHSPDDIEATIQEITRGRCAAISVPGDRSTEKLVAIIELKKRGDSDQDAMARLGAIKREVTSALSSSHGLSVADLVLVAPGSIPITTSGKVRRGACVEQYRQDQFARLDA

cells [6] = type: functional, cell-based
Escherichia coli = assay: microbe, parasite or virus in culture
cells [7] = type: functional, cell-based; remark: listed apart in the source
BJ [8] = assay: cytotoxicity toward BJ-TERT-LT-ST fibroblasts, dose response, cell-based, RAS-independent, luminescence (AID 1935); type: functional; settings: Homo sapiens;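 note: BJ fibroblasts immortalized with TERT plus LT and ST oncogenes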
INS1 = assay: beta cell apoptosis inhibitors, cytokine rescue, dose response, luminescence, retest (AID 449756); type: functional, cell-based; settings: Rattus norvegicus;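 note: cell death triggered by IL-1 beta plus TNF-alpha plus IFN-gamma mixture; protective hits raise ATP signal compared with cytokine alone wells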
[9] = target: T2, Replicative DNA helicase DnaB (Mycobacterium tuberculosis, UniProt P9WMR3); assay: DnaB intein splicing inhibitors, dose response, biochemical, cell-free fluorescence (AID 449749); type: functional
T2 sequence (P9WMR3 whole entry): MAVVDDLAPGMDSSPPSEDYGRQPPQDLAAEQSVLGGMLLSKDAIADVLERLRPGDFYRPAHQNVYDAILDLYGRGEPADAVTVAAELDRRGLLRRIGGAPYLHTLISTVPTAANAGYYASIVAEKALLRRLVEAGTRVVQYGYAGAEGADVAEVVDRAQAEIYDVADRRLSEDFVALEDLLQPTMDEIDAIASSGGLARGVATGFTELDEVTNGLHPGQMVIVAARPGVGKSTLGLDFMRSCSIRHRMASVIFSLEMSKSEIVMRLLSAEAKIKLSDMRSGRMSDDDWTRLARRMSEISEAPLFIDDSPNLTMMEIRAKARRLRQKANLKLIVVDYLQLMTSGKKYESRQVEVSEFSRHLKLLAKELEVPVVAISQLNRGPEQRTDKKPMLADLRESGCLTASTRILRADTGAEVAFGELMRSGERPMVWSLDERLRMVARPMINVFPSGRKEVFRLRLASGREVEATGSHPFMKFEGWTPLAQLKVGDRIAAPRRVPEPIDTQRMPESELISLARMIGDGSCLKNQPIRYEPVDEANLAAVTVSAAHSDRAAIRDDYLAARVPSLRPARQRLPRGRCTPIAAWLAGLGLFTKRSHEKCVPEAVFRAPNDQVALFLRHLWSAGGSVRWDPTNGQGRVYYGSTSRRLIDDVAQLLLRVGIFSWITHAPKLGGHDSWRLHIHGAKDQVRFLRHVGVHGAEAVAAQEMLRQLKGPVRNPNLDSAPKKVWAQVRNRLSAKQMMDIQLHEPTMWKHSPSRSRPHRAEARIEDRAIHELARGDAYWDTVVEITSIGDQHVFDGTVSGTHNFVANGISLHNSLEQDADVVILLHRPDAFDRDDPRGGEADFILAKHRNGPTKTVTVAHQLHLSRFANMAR

[10] = cytotoxicity toward DRD oncogenic fibroblasts, dose response, cell-based, non-viral oncogenic, luminescence (AID 1934); type: functional; settings: Homo sapiens
BJ [11] = assay: cells; type: functional, cell-based; settings: Homo sapiens
[12] = target: T3, COUP transcription factor 2 (Homo sapiens, UniProt P24468); assay: Luminescence-based cell-based high throughput dose response assay to identify inhibitors of COUP-TFII (NR2F2).; type: functional;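 note: HEK293 cells transiently cotransfected with COUP-TFII expression vector and reporter; luciferase reporter luminescence driven by COUP-TFII from the pX2-168 reporter plasmid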
T3 sequence (P24468 whole entry): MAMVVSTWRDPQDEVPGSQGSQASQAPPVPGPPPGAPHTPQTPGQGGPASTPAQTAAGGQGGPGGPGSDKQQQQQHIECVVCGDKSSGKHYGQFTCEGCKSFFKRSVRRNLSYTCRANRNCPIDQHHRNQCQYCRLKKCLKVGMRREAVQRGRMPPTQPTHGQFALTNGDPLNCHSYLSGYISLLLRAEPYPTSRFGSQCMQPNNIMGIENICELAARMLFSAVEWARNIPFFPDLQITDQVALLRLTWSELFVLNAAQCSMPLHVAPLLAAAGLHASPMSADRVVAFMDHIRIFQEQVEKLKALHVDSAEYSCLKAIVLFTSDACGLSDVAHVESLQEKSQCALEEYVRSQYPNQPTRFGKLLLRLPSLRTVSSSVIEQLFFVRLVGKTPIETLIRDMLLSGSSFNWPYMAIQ

[13] = inhibitors of firefly luciferase expression or activity, dose response, H4 neuroglioma cells, luminescence (AID 1990); type: functional, cell-based
[14] = Luminescence Cell-Based Dose Response HTS to Identify Inhibitors of 5'UTR Stem-Loop Driven Prion Protein mRNA Translation in H4 Neuroglioblastoma Cells. [Related pubchem assays: 1827 (Project Summary), 1813 (Primary HTS)]; type: functional
BJ [15] = assay: cytotoxicity toward BJ-TERT fibroblasts, dose response, cell-based, RAS-independent, luminescence (AID 1933); type: functional; settings: Homo sapiens
Protein RecA = target: T4, Protein RecA (Mycobacterium tuberculosis, UniProt P9WHJ3); assay: Fluorescence Cell-Free Homogeneous Dose Retest to Identify Inhibitors of RecA-Intein Splicing Activity. [Related pubchem assays (depositor defined):AID2097, AID2223, AID489010, AID492950]; type: functional
T4 sequence (P9WHJ3 whole entry): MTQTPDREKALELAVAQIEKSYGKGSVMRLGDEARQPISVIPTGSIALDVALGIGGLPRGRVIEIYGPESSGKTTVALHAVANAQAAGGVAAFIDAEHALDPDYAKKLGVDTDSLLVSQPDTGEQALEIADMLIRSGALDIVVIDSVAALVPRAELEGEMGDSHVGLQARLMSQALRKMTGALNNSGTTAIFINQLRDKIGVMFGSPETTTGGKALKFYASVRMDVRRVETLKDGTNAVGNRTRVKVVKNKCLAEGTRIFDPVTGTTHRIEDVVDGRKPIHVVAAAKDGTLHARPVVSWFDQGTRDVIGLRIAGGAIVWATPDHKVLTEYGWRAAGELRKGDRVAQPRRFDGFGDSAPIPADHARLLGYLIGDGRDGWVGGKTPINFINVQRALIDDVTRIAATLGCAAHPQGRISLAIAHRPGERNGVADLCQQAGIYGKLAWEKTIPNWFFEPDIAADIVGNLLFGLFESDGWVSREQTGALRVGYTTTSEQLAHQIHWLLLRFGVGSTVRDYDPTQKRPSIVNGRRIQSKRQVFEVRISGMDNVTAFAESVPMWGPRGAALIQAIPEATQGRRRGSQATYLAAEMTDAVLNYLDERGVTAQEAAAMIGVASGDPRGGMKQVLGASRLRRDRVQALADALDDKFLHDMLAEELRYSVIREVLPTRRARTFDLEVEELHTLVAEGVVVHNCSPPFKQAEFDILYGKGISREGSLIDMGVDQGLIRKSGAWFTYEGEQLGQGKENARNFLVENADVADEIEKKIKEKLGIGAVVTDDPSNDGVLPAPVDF

[16] = inhibitors of SNCA 5'UTR-driven reporter translation, confirmation, H4 neuroglioma cells, luminescence (AID 1988); type: functional, cell-based
[17] = Luminescence Cell-Based Dose Confirmation HTS to Identify Inhibitors of Platelet Dense Granule Release. [Related pubchem assays: 1663 (Primary HTS), 1678 (Summary of Project)]; type: functional
[18] = target: Luciferin 4-monooxygenase (Photinus pyralis, UniProt P08659); assay: firefly luciferase enzyme inhibitors, dose response, biochemical, luminescence (AID 1891)
[19] = non-specific cell cytotoxicity, dose response, cytotoxicity control for PAX8 inhibitor project, plate reader, dry powder samples (AID 743021); type: functional, cell-based

Eukaryotic translation initiation factor 4E, sequence (P63073 whole entry): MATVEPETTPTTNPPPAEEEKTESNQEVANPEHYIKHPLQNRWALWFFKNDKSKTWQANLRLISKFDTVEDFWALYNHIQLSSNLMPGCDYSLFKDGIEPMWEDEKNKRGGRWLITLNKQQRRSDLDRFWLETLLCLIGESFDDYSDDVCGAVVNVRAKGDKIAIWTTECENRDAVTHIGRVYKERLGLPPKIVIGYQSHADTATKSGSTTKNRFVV
Luciferin 4-monooxygenase, sequence (P08659 whole entry): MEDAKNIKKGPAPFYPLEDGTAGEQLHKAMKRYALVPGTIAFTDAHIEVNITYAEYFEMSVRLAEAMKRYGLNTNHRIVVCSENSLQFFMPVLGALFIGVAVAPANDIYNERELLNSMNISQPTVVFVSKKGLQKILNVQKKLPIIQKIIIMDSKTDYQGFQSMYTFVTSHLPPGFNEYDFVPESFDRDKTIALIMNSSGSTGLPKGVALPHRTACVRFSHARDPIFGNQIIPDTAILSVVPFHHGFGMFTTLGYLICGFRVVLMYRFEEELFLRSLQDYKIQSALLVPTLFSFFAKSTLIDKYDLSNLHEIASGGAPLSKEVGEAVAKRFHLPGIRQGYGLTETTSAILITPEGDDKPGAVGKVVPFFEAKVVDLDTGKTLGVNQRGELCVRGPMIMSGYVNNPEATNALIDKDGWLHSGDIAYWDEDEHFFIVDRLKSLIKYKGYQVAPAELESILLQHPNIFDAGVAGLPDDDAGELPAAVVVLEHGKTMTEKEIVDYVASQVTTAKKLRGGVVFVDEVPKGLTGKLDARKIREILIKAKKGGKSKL

Cc1nc(C(C)(C)O)n(-c2ccccc2)n1
IC50 [1]: > 64 µM (inactive)

CCn1c(SCC(=O)Nc2ccccc2OC)nc2ccccc2c1=O
IC50 [1]: > 64 µM (inactive)

Cc1ccc2[nH]c(-c3ccc(NC(=O)C4CCCO4)cc3)nc2c1 (stereo not drawn)
AC50 [2]: 5.48 µM (active) | AC50 [3]: 11.9 µM (active) | AC50 [4]: > 52 µM (inactive)

Cc1cccc(NC(=O)CN2C(=O)S/C(=C\c3cc(C)n(C)c3C)C2=O)c1
AC50 [5]: 0.381 µM (active)

Cc1cc(C)c(NS(=O)(=O)c2ccc3c(c2)NC(=O)CCS3)c(C)c1
EC50 (cells [6]): > 350 µM (not active) | AC50 (Escherichia coli): 23.1 µM (active) | EC50 (cells [7]): 58.1 µM (active)

C=CCn1cc(CN2CCC(C(=O)Nc3ccc(Oc4cccnc4)cc3)CC2)c(C)n1
AC50 [5]: 21 µM (active)

N#CC(C#N)=C(Nc1ccc(F)cc1)SCc1cccc(Br)c1
EC50 (BJ [8]): 22.5 µM (active) | AC50 (INS1): 2.92 µM (active) | AC50 [9]: 3.08 µM (active) | EC50 [10]: 21.7 µM (active) | EC50 (BJ [11]): 22.2 µM (active) | IC50 [12]: 11.3 µM (inactive) | EC50 [13]: 11.2 µM (active) | EC50 [14]: 0.272 µM (active) | EC50 (BJ [15]): 11.8 µM (inconclusive) | EC50 (Protein RecA): 2.38 µM (active) | EC50 [16]: 13.5 µM (active)

COc1cc(NC(=O)C2CCCCC2)c(OC)cc1NC(=O)c1ccco1
AC50 (Escherichia coli): 30.6 µM (active)

Cc1onc(-c2ccccc2)c1C(=O)Nc1nc(-c2cc(F)ccc2F)cs1
AC50 (Escherichia coli): 38.9 µM (active)

O=c1cc(Nc2ccc3c(c2)OCCO3)[nH]c(=O)n1C1CCCCC1
AC50 [5]: 61.1 µM (active)

COc1cccc(CC(=O)Nc2nc3c(s2)C(=O)CC(C)(C)C3)c1
EC50 [17]: > 112 µM (not active) | EC50 [18]: > 112 µM (not active) | AC50 [19]: 41.9 µM (active)

COc1cccc2sc(NN)nc12
AC50 [5]: > 100 µM (inactive)
